Format in all cases: cell-based
Assay [1] has as its system Staphylococcus epidermidis (ATCC 12228). The assay is described as follows: Determination of the bacteriostatic action, microbe count after incubation. Particulars: for Final microbe count: sample 2.0% in water/ethanol (12% of ethanol), mixed 1:1 with suspension, 35° C., 24 h or 48 h, initial count 1.6 × 10^4. The protocol:
(§1) For sample preparation, substances I-1 and I-5 being investigated are homogeneously dispersed in an amount of 2.0% in a water/ethanol mixture (12% of ethanol) (=sample). A suspensions of Staphylococcus epidermidis (ATCC 12228) having an optical density of 1.0 in CASO broth (Merck 1.05459) is diluted 1:10000 with CASO broth. 500 μl of sample are added to […] of microorganism suspension, and the mixture is incubated at 35° C. for 24 h or 48 h. After the incubation, the test batches are diluted to −6 in 10 unit steps, and 0.1 ml of each is plated-out on CASO agar (Merck 1.05458) and incubated at 35° C. for 24 h.
(§2) In order to determine the initial microbe count, 0.1 ml of the bacteria suspension used are plated-out on CASO agar (Merck 1.05458) and incubated at 35° C. for 24 h.
(§3) The colonies are subsequently counted, and the microbe count per ml is determined compared with the negative control (12% of ethanol in water).
(§4) The concentrations indicated are the final use concentrations. In order to prepare the stock solution, double the final concentration are prepared in the solvent indicated. This is subsequently diluted 1:2 with the corresponding microbe suspension. In the case of Aspergillus brasiliensis, the microbe count determination is exceptionally carried out after 48 h, in the case of Malassezia furfur after 72 h.

Assay [2] concerns Propionibacterium acnes (ATCC 6919). Put plainly: Microbe count after incubation, carried out in accordance with Example 1. Particulars: for Δlog: t24 h vs t0; for Final microbe count: as Example 1, sample 2.0% in water/ethanol (12% of ethanol), initial count 8.3 × 10^4. The protocol:
as §1, §2, §3
The experiment is carried out in accordance with Example 1. Instead of the action on Staphylococcus epidermidis, the action of substances I-1 and I-5 on the test microbe Propionibacterium acnes is investigated.
as §4

In assay [3] the test system is Aspergillus brasiliensis. The assay is described as follows: Microbe count after incubation (Example 3). As to conditions: 1.0% final conc., H2O (12% of ethanol). The protocol:
as §1, §2, §3, §4

Assay [4] concerns Candida albicans. The assay is described as follows: Microbe count after incubation (Example 3). As to conditions: 1.0% final conc., H2O (12% of ethanol). The protocol:
as §1, §2, §3, §4

The subject of assay [5] is Corynebacterium xerosis. Put plainly: Microbe count after incubation (Example 3). As to conditions: 0.5% final conc., H2O. The protocol: as §1, §2, §3, §4
For assay [6], the system named is Malassezia furfur. Put plainly: Microbe count after incubation (Example 3). As to conditions: 1.0% final conc., H2O. The protocol:
as §1, §2, §3, §4

Assay [7] relates to Salmonella enterica. Put plainly: Microbe count after incubation (Example 3). Particulars: 0.5% final conc., H2O. The protocol:
as §1, §2, §3, §4

For assay [8], the system named is Staphylococcus aureus. Put plainly: Microbe count after incubation (Example 3). As to conditions: 1.0% final conc., H2O (12% of ethanol). The protocol:
as §1, §2, §3, §4

The structures appear in SMILES notation.

Consider `OC1CCC(C(O)C2CCCCC2)CC1` (stereo not shown) [Substance I-1, 4-(cyclohexylhydroxymethyl)cyclohexanol], for which the “Microbe count t24 h” value in assay [1] (0.5% final conc., H2O (12% of ethanol), t0 1.6 × 10^4) is 7.4 × 10^3; in assay [2] (0.25% final conc., H2O, t0 5.4 × 10^5) it was 2.4 × 10^5; in assay [2] (0.5% final conc., H2O (12% of ethanol), t0 8.3 × 10^4) it was 0; in assay [3] (count after 48 h, t0 8.0 × 10^2), 0; in assay [4] (t0 6.0 × 10^3) it was 0; in assay [5] (t0 1.0 × 10^6), 1.3 × 10^6. Also, the “Microbe count t24 h” value in assay [6] (count after 72 h, t0 4.0 × 10^2) is reported as 0; in assay [7] (t0 1.0 × 10^6), 5.1 × 10^6; in assay [8] (t0 7.2 × 10^4), 0. Also, the Δlog in assay [1] (0.5% final conc., H2O (12% of ethanol), t24 h vs t0) is −0.34; in assay [2] (0.25% final conc., H2O) it was −0.35; in assay [2] (0.5% final conc., H2O (12% of ethanol)), −4.92; in assay [3] (count after 48 h vs t0), −2.90; in assay [4] (t24 h vs t0), −3.78; in assay [5] (t24 h vs t0), “+0.11”. Also, the Δlog in assay [6] (count after 72 h vs t0) is recorded as −2.60; in assay [7] (t24 h vs t0), “+0.71”; in assay [8] (t24 h vs t0), −4.86. For the same molecule, the Final microbe count was 7.4 × 10^3 CFU/ml in assay [1] and 0 CFU/ml in assay [2].

For the molecule `COC1CCC(C(O)C2CCCCC2)C(O)C1` (stereo not shown) [Substance I-5, 2-(cyclohexylhydroxymethyl)-5-methoxy-cyclohexanol], the figures for the Final microbe count in assay [1] and in assay [2] were 7.0 × 10^3 CFU/ml and 0 CFU/ml, respectively.
